pIC50, pKi: −log10 of the molar value. Like-named read-outs stand apart in the source and are kept apart here.
Columns and labels:
Bcl-xL (GST-Bcl-xL) [1] = target: T1, Bcl-xL (GST-Bcl-xL) (Homo sapiens, UniProt Q07817); test: TR-FRET binding assay, competition with F-Bak for the Bcl-xL binding site
Bcl-xL (GST-Bcl-xL) [2] = target: T1, Bcl-xL (GST-Bcl-xL); test: AlphaScreen Bcl-xL binding assay, competition with biotinylated Bim peptide; parameters: made in house; details: values listed in the order of Table 1; read-out: Alphascreen results (IC50) against the Bcl-xL protein
In short: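 Acceptor beads with GST-Bcl-xL were combined with donor beads carrying biotinylated Bim peptide after each bead mix was preincubated 30 min at room temperature. Compounds in DMSO, 2-fold serially diluted, were incubated 30 min at room temperature before donor addition, with duplicate plates. Percent inhibition was taken against no-protein and DMSO controls, and IC50 was calculated.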

[3] = values listed in the order of Table 1, read-out: TR-FRET assay results (Ki), Bcl-xL

T1 sequence (Q07817 whole entry, species assumed): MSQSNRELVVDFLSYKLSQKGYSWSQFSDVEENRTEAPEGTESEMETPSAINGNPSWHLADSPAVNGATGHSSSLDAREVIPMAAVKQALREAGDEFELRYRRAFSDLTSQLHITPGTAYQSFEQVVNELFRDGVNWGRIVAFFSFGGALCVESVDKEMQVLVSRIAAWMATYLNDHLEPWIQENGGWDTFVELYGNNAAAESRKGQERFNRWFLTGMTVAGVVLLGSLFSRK

Row | Compound | pKi (Bcl-xL (GST-Bcl-xL) [1]; [3]) | pIC50 (Bcl-xL (GST-Bcl-xL) [2]) | pKi (Bcl-xL (GST-Bcl-xL) [1]; with 1% human serum (HS))
1 | O=C(Nc1nc2ccccc2s1)c1cccc2c1CN(c1nc(C(=O)O)c(CCCOc3ccc4c5c3CCCN5CCC4)s1)CC2 [Example 27, 2-(8-(benzo[d]thiazol-2-ylcarbamoyl)-3,4-dihydroisoquinolin-2(1H)-yl)-5-(3-(1,2,3,5,6,7-hexahydropyrido[3,2,1-ij]quinolin-8-yloxy)propyl)thiazole-4-carboxylic acid] | 9.00 | 8.15 | 
2 | O=C(Nc1nc2ccccc2s1)c1cccc2c1CN(c1nc(C(=O)O)c(CCCO)s1)CC2 [Example 38, 2-(8-(Benzo[d]thiazol-2-ylcarbamoyl)-3,4-dihydroisoquinolin-2(1H)-yl)-5-(3-hydroxypropyl)thiazole-4-carboxylic acid] | 8.30 | 8.30 | 
3 | CN(C)CCCc1ccc(OCCCc2sc(N3CCc4cccc(C(=O)Nc5nc6ccccc6s5)c4C3)nc2C(=O)O)c(F)c1 [Example 103, 2-(8-(benzo[d]thiazol-2-ylcarbamoyl)-3,4-dihydroisoquinolin-2(1H)-yl)-5-(3-(4-(3-(dimethylamino)propyl)-2-fluorophenoxy)propyl)thiazole-4-carboxylic acid] |  | 9.40 | 11.22
4 | O=C(Nc1nc2ccccc2s1)c1cccc2c1CN(c1nc(C(=O)O)c(CCCOc3ccc4nc(N5CCN(c6ccccn6)CC5)sc4c3)s1)CC2 [Example 23, 2-(8-(benzo[d]thiazol-2-ylcarbamoyl)-3,4-dihydroisoquinolin-2(1H)-yl)-5-(3-(2-(4-(pyridin-2-yl)piperazin-1-yl)benzo[d]thiazol-6-yloxy)propyl)thiazole-4-carboxylic acid] | 8.70 | 9.00 | 
5 | O=C(Nc1nc2ccccc2s1)c1cccc2c1CN(c1nc(C(=O)O)c(CN3CCC(c4ccccc4)CC3)s1)CC2 [Example 63, 2-(8-(benzo[d]thiazol-2-ylcarbamoyl)-3,4-dihydroisoquinolin-2(1H)-yl)-5-((4-phenylpiperidin-1-yl)methyl)thiazole-4-carboxylic acid] | 6.61 | 6.24 | 
6 | CC(C)(C)OC(=O)Nc1ccc(OCCCc2sc(N3CCc4cccc(C(=O)Nc5nc6ccccc6s5)c4C3)nc2C(=O)O)cc1 [Example 4, 2-(8-(benzo[d]thiazol-2-ylcarbamoyl)-3,4-dihydroisoquinolin-2(1H)-yl)-5-(3-(4-(tert-butoxycarbonylamino)phenoxy)propyl)thiazole-4-carboxylic acid] | 9.52 | 9.10 | 
7 | Cc1ccccc1-c1ccc(N2CCc3cccc(C(=O)Nc4nc5ccccc5s4)c3C2)nc1C(=O)O [Compound 126, 6-(8-(benzo[d]thiazol-2-ylcarbamoyl)-3,4-dihydroisoquinolin-2(1H)-yl)-3-o-tolylpicolinic acid] | 6.71 | 7.11 | 
8 | CN(C)CC#Cc1cc(F)c(OCCCc2sc(N3CCc4cccc(C(=O)Nc5nc6ccccc6s5)c4C3)nc2C(=O)O)cc1F [Example 118, 2-(8-(benzo[d]thiazol-2-ylcarbamoyl)-3,4-dihydroisoquinolin-2(1H)-yl)-5-(3-(4-(3-(dimethylamino)prop-1-ynyl)-2,5-difluorophenoxy)propyl)thiazole-4-carboxylic acid] | 11.00 | 9.52 | 
9 | O=C(Nc1nc2ccccc2s1)c1cccc2c1CN(c1nc(C(=O)O)c(CCOc3ccc(-n4ncc5cncnc54)cc3)s1)CC2 [Example 49, 5-(2-(4-(1H-pyrazolo[3,4-d]pyrimidin-1-yl)phenoxy)ethyl)-2-(8-(benzo[d]thiazol-2-ylcarbamoyl)-3,4-dihydroisoquinolin-2(1H)-yl)thiazole-4-carboxylic acid] | 7.92 | 7.10 | 
10 | O=C(Nc1nc2ccccc2s1)c1cccc2c1CN(c1nc(C(=O)O)c(CCCOc3ccc(OCCN4CCCC4)cc3)s1)CC2 [Example 114, 2-(8-(benzo[d]thiazol-2-ylcarbamoyl)-3,4-dihydroisoquinolin-2(1H)-yl)-5-(3-(4-(2-(pyrrolidin-1-yl)ethoxy)phenoxy)propyl)thiazole-4-carboxylic acid] | 10.40 | 9.85 | 

Reference: patent US8232273B2, “Heterocyclic compounds and methods of use” (Genentech, Inc., priority 2008, dated 2012)
